Measured values reported in the supplement of paper PMC10307832.

What was measured:
Test in all cases: relative viability (nuclei count vs DMSO), 5 days (fraction); higher = more cells survive
[1] = compound: C1CC2=C(C1)C=C(C=C2)OC3=NC(=C4C(=N3)N(C=N4)CC5=CC=C(C=C5)C6=CC=CC=C6)N[C@@H](CC7=CC=CC=C7)CO [QS11] + CCNC(=O)c1noc(-c2cc(C(C)C)c(O)cc2O)c1-c1ccc(CN2CCOCC2)cc1 [Luminespib] (partner 0.01 µM)
Procedure, shortened: (§1)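 Lung cancer cell lines, seeded in 1536-well plates, were treated the following day by pin tool with a single drug or with five library-drug doses (not always all listed) in √10 steps on top of a fixed anchor-drug dose. Cells were fixed and nuclei stained in one step after 5 days, and nuclei were counted. Relative viability is the nuclei count for treated wells divided by that for vehicle wells, reported as medians of duplicate plates.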

[2] = compound: CC1=C(C=C(C=C1)NC(=O)C2=CC(=CC=C2)C(C)(C)C#N)NC3=CC4=C(C=C3)N=CN(C4=O)C [AZ628] + Nc1ncn([C@H]2C[C@H](O)[C@@H](CO)O2)c(=O)n1 [Decitabine] (partner 2 µM)
Procedure, shortened: as §1

[3] = compound: CC1=C(C=C(C=C1)NC(=O)C2=CC(=CC=C2)C(C)(C)C#N)NC3=CC4=C(C=C3)N=CN(C4=O)C [AZ628] + O=C(CCCCCCC(=O)Nc1ccccc1)NO [Vorinostat] (partner 1 µM)
Procedure, shortened: as §1

[4] = compound: C[As](C)SC[C@H](NC(=O)CC[C@H](N)C(=O)O)C(=O)NCC(=O)O [Darinaparsin] + CC(C)C[C@H](NC(=O)[C@H](Cc1ccccc1)NC(=O)c1cnccn1)B(O)O [Bortezomib] (partner 0.002 µM)
Procedure, shortened: as §1

| Cell Line | relative viability ([1]; first compound 0.08 µM) | relative viability ([1]; first compound 0.253 µM) | relative viability ([1]; first compound 0.8 µM) | relative viability ([1]; first compound 2.53 µM) | relative viability ([1]; first compound 8 µM) | relative viability ([2]; first compound 0.08 µM) | relative viability ([2]; first compound 0.253 µM) | relative viability ([2]; first compound 0.8 µM) | relative viability ([2]; first compound 2.53 µM) | relative viability ([2]; first compound 8 µM) | relative viability ([3]; first compound 0.08 µM) | relative viability ([3]; first compound 0.253 µM) | relative viability ([3]; first compound 0.8 µM) | relative viability ([3]; first compound 2.53 µM) | relative viability ([3]; first compound 8 µM) | relative viability ([4]; first compound 0.08 µM) | relative viability ([4]; first compound 0.8 µM) | relative viability ([4]; first compound 2.53 µM) | relative viability ([4]; first compound 8 µM) |
| --- | --- | --- | --- | --- | --- | --- | --- | --- | --- | --- | --- | --- | --- | --- | --- | --- | --- | --- | --- |
| NCI-H1755 | 0.403 | 0.406 | 0.289 | 0.422 | 0.412 | 0.763 | 0.691 | 0.718 | 0.73 | 0.676 | 0.78 | 0.779 | 0.84 | 0.755 | 0.679 | 1.04 | 0.94 | 0.915 | 1.18 |
| COR-L 105 | 0.838 | 0.7 | 0.649 | 0.776 | 0.664 | 0.74 | 0.692 | 0.668 | 0.613 | 0.559 | 0.881 | 0.886 | 0.796 | 0.794 | 0.654 | 0.944 | 0.78 | – | 0.636 |
| NCI-H838 | 0.284 | 0.246 | 0.282 | 0.289 | 0.275 | 0.49 | 0.504 | 0.476 | 0.455 | 0.479 | 0.753 | 0.72 | 0.677 | 0.722 | 0.718 | 0.976 | 0.766 | 0.679 | 0.811 |
| NCI-H1993 | 0.831 | 0.74 | 0.739 | 0.77 | 0.68 | 0.587 | 0.518 | 0.639 | 0.463 | 0.55 | 0.751 | 0.774 | 0.812 | 0.62 | 0.547 | 1.24 | 0.875 | 1.31 | 1.04 |
| NCI-H1650 | 0.193 | 0.209 | 0.201 | 0.192 | 0.216 | 0.586 | 0.485 | 0.429 | 0.382 | 0.615 | 0.733 | 0.763 | 0.582 | 0.505 | 0.562 | 0.216 | 0.193 | 0.193 | 0.195 |
| HARA | 0.675 | 0.747 | – | 0.845 | 1.19 | 0.414 | 0.441 | 0.461 | 0.448 | 0.289 | 0.706 | 0.453 | 0.405 | 0.399 | 0.183 | 1.49 | 1.12 | 1.06 | 1.25 |
| PC-3 [JPC-3] | 0.708 | 0.729 | 0.663 | 0.718 | 0.703 | 0.86 | 0.813 | 0.924 | 0.827 | 0.642 | 1.15 | 0.7 | 0.891 | 0.793 | 0.709 | 0.98 | 0.829 | 0.73 | 0.815 |
| ABC-1 | 0.656 | 0.861 | – | 0.828 | 0.842 | 1.07 | 0.898 | 1.07 | 1.18 | 1.07 | 1.26 | 0.789 | 1.27 | 0.955 | 1.07 | 0.256 | 0.443 | 0.331 | 0.234 |
| NCI-H441 | 0.376 | 0.286 | 0.329 | 0.315 | 0.328 | 0.257 | 0.313 | 0.245 | 0.212 | 0.226 | 0.782 | 0.749 | 0.67 | 0.673 | 0.68 | 0.611 | 0.513 | 0.636 | 0.447 |
